Target: StAhpC (Salmonella typhimurium AhpC; alkyl hydroperoxide reductase C component) (Salmonella enterica, UniProt P0A251)
Experiment: stopped-flow Trp fluorescence, double-exponential fit
Type: biochemical
Settings: reduced enzyme, no reductase; pH 7.0, 25 °C; peroxidatic Cys46

StAhpC (Salmonella typhimurium AhpC; alkyl hydroperoxide reductase C component), sequence (P0A251 2-187): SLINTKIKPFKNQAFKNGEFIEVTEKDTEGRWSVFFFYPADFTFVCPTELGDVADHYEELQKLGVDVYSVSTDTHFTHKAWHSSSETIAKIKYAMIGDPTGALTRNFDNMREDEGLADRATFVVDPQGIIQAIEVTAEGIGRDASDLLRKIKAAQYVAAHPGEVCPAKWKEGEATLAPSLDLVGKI

SMILES: CC(C)(OO)c1ccccc1 [cumene hydroperoxide]
- slope of kobs vs [ROOH], first phase: black those for cumene hydroperoxide

SMILES: CCOO [ethyl hydroperoxide]
- slope of kobs vs [ROOH], first phase: red those for ethyl hydroperoxide

Reference: publication PMC4489686 (Biochemistry, 2015)
